Measurements as given in publication PMC10254897, “Development and Validation of a New LC-MS/MS Bioanalytical Method for the Simultaneous Determination of Levodopa, Levodopa Methyl Ester, and Carbidopa in Human Plasma Samples” (Molecules, 2023).

Assay: Short-term, medium-term and autosampler stability in plasma samples and extracts
Format: physicochemical, human
Conditions: for Stability in plasma samples at −40 °C (time stable): tested 2 weeks, 1 and 2 months
Procedure: Sample stability was measured at two concentration levels (LQC and HQC) in triplicate. Long-term stability was evaluated at −40 °C for 2 weeks, 1 and 2 months; short-term stability was evaluated at room temperature (rt) under light exposure and with light protection and at 4 °C (light protection) for 1, 2, 3, 4, and 7 days. Autosampler stability was also assessed by storing extracts in the autosampler compartment at 10 °C for 1, 2, 3, 4, and 7 days.
The mean concentration values obtained from each measurement were compared to the concentrations measured at T0 before storage. Stability data are expressed as percentual difference from T0.

[1] = plasma samples stored at −40 °C

Stability in plasma samples at −40 °C (time stable) [1] | SMILES | further results
up to 2 months | N[C@@H](Cc1ccc(O)c(O)c1)C(=O)O [L-DOPA, Levodopa] | 
 | COC(=O)C(N)Cc1ccc(O)c(O)c1 (stereo not shown) [LDME, levodopa methyl ester] | Stability in plasma samples at −40 °C (in words) [1]: not satisfactory
up to 1 months | C[C@@](Cc1ccc(O)c(O)c1)(NN)C(=O)O [Carbidopa, carbidopa] | 
 | NC(CO)C(=O)NNCc1ccc(O)c(O)c1O (stereo not shown) [benserazide] | Stability of the compound (in words) (method development, conditions not stated): severe stability issues
